Assay results taken from patent US12655127B2, “Fused ring compound as Wee-1 inhibitor” (WIGEN BIOMEDICINE TECHNOLOGY (SHANGHAI) CO., LTD., priority 2021, dated 2026).

The molecules below were run against recombinant protein Wee-1 (Homo sapiens, UniProt P30291) (assay: Inhibition of enzymatic activity of recombinant protein Wee-1 (HTRF)).
Assay type: biochemical
Experimental: The inhibitory effect of the compounds on the enzyme activity of recombinant protein Wee-1 was determined by HTRF. The procedures are as follows:
After DMSO or serially diluted compounds (up to 200 nM, 1:5 serially diluted) and recombinant proteins were co-incubated in a kinase buffer at 37° C. for 30 min Fluorescein-PolyGAT and ATP were added, and then the reaction was started by the addition of a substrate. After incubation at room temperature for 90 min, an antibody and a detection solution were added, and after further incubation at room temperature for 60 min, fluorescence values were detected (excitation wavelength: 340 nm, emission wavelengths: 495 and 520 nm). The 520 nm/495 nm fluorescence intensity ratio value was calculated, and compared with that of the DMSO group, and then the inhibition percentages and IC50 values of the compounds were calculated.

recombinant protein Wee-1, sequence (P30291 whole entry): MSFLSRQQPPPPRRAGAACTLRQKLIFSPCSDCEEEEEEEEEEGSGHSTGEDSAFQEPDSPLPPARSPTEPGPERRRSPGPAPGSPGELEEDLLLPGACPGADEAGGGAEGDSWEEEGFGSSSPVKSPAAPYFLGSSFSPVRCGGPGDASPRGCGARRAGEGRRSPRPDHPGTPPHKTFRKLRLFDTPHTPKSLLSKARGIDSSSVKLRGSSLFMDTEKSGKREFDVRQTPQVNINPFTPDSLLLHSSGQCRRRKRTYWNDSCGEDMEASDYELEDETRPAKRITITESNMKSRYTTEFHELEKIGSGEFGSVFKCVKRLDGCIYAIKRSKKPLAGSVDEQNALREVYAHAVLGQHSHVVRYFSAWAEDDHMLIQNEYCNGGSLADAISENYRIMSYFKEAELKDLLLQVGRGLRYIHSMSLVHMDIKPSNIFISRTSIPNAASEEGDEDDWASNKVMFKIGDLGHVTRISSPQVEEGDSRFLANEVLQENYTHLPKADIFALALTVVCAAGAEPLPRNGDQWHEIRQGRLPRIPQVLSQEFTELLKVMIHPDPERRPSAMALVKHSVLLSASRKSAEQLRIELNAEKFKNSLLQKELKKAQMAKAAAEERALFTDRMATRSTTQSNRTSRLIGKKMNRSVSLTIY

| SMILES | IC50 |
| --- | --- |
| CN1Cc2cc(Nc3ncc(C#N)c(Nc4cccc(N=S(C)(C)=O)n4)n3)cc3c2C(CCCCO3)C1 (stereo not shown) [Compound 82] | ≤ 10 nM |
| CN1Cc2cc(Nc3ncc(C#N)c(Nc4cccc(N=S(C)(C)=O)n4)n3)cc3c2C(CCCCS3)C1 (stereo not shown) [Compound 83] | ≤ 10 nM |
| CN1Cc2cc(Nc3ncc(C#N)c(Nc4cccc(N=S(C)(C)=O)n4)n3)cc3c2C(C=CCC3)C1 (stereo not shown) [Compound 84] | ≤ 10 nM |
| CN1Cc2cc(Nc3ncc(C#N)c(Nc4cccc(N=S(C)(C)=O)n4)n3)cc3c2C(CC=CC3)C1 (stereo not shown) [Compound 85] | ≤ 10 nM |
| CN1Cc2cc(Nc3ncc(C#N)c(Nc4cccc(N=S(C)(C)=O)n4)n3)cc3c2C(CCC=C3)C1 (stereo not shown) [Compound 86] | ≤ 10 nM |
| CN1Cc2cc(Nc3ncc(C#N)c(Nc4cccc(N=S(C)(C)=O)n4)n3)cc3c2C1CCCC3 (stereo not shown) [Compound 88] | ≤ 10 nM |
| CN(C)C1Cc2cc(Nc3ncc(C#N)c(Nc4cccc(N=S(C)(C)=O)n4)n3)cc3c2C(CCC3)C1 (stereo not shown) [Compound 89] | ≤ 10 nM |
| CN(C)C1Cc2cc(Nc3ncc(C#N)c(Nc4cccc(N=S(C)(C)=O)n4)n3)cc3c2C1CCC3 (stereo not shown) [Compound 90] | ≤ 10 nM |
| CN1Cc2cc(Nc3ncc(C#N)c(Nc4cccc(N=S5(=O)CCC5)n4)n3)cc3c2C(CCC3)C1 (stereo not shown) [Compound 92] | ≤ 10 nM |
| CN1Cc2cc(Nc3ncc(C#N)c(Nc4cccc(N=S5(=O)CCCC5)n4)n3)cc3c2C(CCC3)C1 (stereo not shown) [Compound 93] | ≤ 10 nM |
| CN1Cc2cc(Nc3ncc(C(F)(F)F)c(Nc4cccc(N=S(C)(C)=O)n4)n3)cc3c2C(CCC3)C1 (stereo not shown) [Compound 94] | ≤ 10 nM |
| CN1Cc2cc(Nc3ncc(C4CC4)c(Nc4cccc(N=S(C)(C)=O)n4)n3)cc3c2C(CCC3)C1 (stereo not shown) [Compound 95] | ≤ 10 nM |
| CN1Cc2cc(Nc3ncc(P(C)(C)=O)c(Nc4cccc(N=S(C)(C)=O)n4)n3)cc3c2C(CCC3)C1 (stereo not shown) [Compound 96] | ≤ 10 nM |
| CN1Cc2cc(Nc3ncc(S(C)(=O)=O)c(Nc4cccc(N=S(C)(C)=O)n4)n3)cc3c2C(CCC3)C1 (stereo not shown) [Compound 97] | ≤ 10 nM |
| CN1Cc2cc(Nc3ncc(C(N)=O)c(Nc4cccc(N=S(C)(C)=O)n4)n3)cc3c2C(CCC3)C1 (stereo not shown) [Compound 98] | ≤ 10 nM |
| CN1Cc2cc(Nc3ncc(-c4ccoc4)c(Nc4cccc(N=S(C)(C)=O)n4)n3)cc3c2C(CCC3)C1 (stereo not shown) [Compound 99] | ≤ 10 nM |
| CN1Cc2cc(Nc3ncc(C#N)c(-n4ccc5c(N=S(C)(C)=O)cccc54)n3)cc3c2C(CCC3)C1 (stereo not shown) [Compound 113] | ≤ 10 nM |
| CN1Cc2cc(Nc3ncc(C#N)c(N4CCc5c(N=S(C)(C)=O)cccc54)n3)cc3c2C(CCC3)C1 (stereo not shown) [Compound 114] | ≤ 10 nM |

| SMILES | IC50 |
| --- | --- |
| CN1Cc2cc(Nc3ncc(C#N)c(-c4c[nH]c5c(N=S(C)(C)=O)cccc45)n3)cc3c2C(CCC3)C1 (stereo not shown) [Compound 115] | ≤ 10 nM |
| CN1Cc2cc(Nc3ncc(C#N)c(-c4cn(C)c5c(N=S(C)(C)=O)cccc45)n3)cc3c2C(CCC3)C1 (stereo not shown) [Compound 116] | ≤ 10 nM |
| C=Cc1cc(N=S(C)(C)=O)nc(Nc2nc(Nc3cc4c5c(c3)CC(N(C)C)CCC5CCC4)ncc2C#N)c1 (stereo not shown) [Compound 124] | ≤ 10 nM |
| CN1Cc2cc(Nc3ncc(C#N)c(Nc4cccc(N=S(C)(C)=O)n4)n3)cc3c2C2(CCC3)CC12 (stereo not shown) [Compound 125] | ≤ 10 nM |
| CN1Cc2cc(Nc3ncc(C#N)c(Nc4cccc(N=S(C)(C)=O)n4)n3)cc3c2C(C1)CN(C)C3 [Compound 126] | ≤ 10 nM |
| CN1Cc2cc(Nc3ncc(C#N)c(Nc4cccc(N=S(C)(C)=O)n4)n3)cc3c2C(CNC3)C1 (stereo not shown) [Compound 127] | ≤ 10 nM |
| CC(=O)N1Cc2cc(Nc3ncc(C#N)c(Nc4cccc(N=S(C)(C)=O)n4)n3)cc3c2C(CN(C)C3)C1 (stereo not shown) [Compound 128] | ≤ 10 nM |
| CN1Cc2cc(Nc3ncc(C#N)c(Nc4cccc(N=S(C)(C)=O)n4)n3)cc3c2C(C1)N(C)CC3 (stereo not shown) [Compound 129] | ≤ 10 nM |
| CN1Cc2cc(Nc3ncc(C#N)c(Nc4cccc(N=S(C)(C)=O)n4)n3)cc3c2C(C1)NCC3 (stereo not shown) [Compound 130] | ≤ 10 nM |
| CN1Cc2cc(Nc3ncc(C#N)c(Nc4cccc(N=S(C)(C)=O)n4)n3)cc3c2C(CCN3C)C1 (stereo not shown) [Compound 131] | ≤ 10 nM |
| CN1Cc2cc(Nc3ncc(C#N)c(Nc4cccc(N=S(C)(C)=O)n4)n3)cc3c2C(CCC3)C1(C)C (stereo not shown) [Compound 133] | ≤ 10 nM |
| CN1Cc2cc(Nc3ncc(C#N)c(Nc4cccc(N=S(C)(C)=O)n4)n3)cc3c2C(CCC3O)C1 (stereo not shown) [Compound 289] | ≤ 10 nM |
| CN1Cc2cc(Nc3ncc(C#N)c(Nc4cccc(N=S(C)(C)=O)n4)n3)cc3c2C(CCC3N)C1 (stereo not shown) [Compound 290] | ≤ 10 nM |
| CN1Cc2cc(Nc3ncc(C#N)c(Nc4cccc(N=S(C)(C)=O)n4)n3)cc3c2C(CC(O)C3)C1 (stereo not shown) [Compound 291] | ≤ 10 nM |
| CN1Cc2cc(Nc3ncc(C#N)c(Nc4cccc(N=S(C)(C)=O)n4)n3)cc3c2C(CC(N)C3)C1 (stereo not shown) [Compound 292] | ≤ 10 nM |
| CN1Cc2cc(Nc3ncc(C#N)c(Nc4cccc(N=S(C)(C)=O)n4)n3)cc3c2C(C1)C(O)CC3 (stereo not shown) [Compound 293] | ≤ 10 nM |
| CN1Cc2cc(Nc3ncc(C#N)c(Nc4cccc(N=S(C)(C)=O)n4)n3)cc3c2C(C1)C(N)CC3 (stereo not shown) [Compound 294] | ≤ 10 nM |

More lines, now with the values ahead:

| IC50 | SMILES |
| --- | --- |
| ≤ 10 nM | CN1Cc2cc(Nc3ncc(C#N)c(Nc4cccc(N=S(C)(C)=O)n4)n3)cc3c2C(CCCO3)C1 (stereo not shown) [Compound 74] |
| ≤ 10 nM | CN1Cc2cc(Nc3ncc(C#N)c(Nc4cccc(N=S(C)(C)=O)n4)n3)cc3c2C(CCCS3)C1 (stereo not shown) [Compound 75] |
| ≤ 10 nM | CN1Cc2cc(Nc3ncc(C#N)c(Nc4cccc(N=S(C)(C)=O)n4)n3)cc3c2C(CCOC3)C1 (stereo not shown) [Compound 76] |
| ≤ 10 nM | CN1Cc2cc(Nc3ncc(C#N)c(Nc4cccc(N=S(C)(C)=O)n4)n3)cc3c2C(CCSC3)C1 (stereo not shown) [Compound 77] |
| ≤ 10 nM | CN1Cc2cc(Nc3ncc(C#N)c(Nc4cccc(N=S(C)(C)=O)n4)n3)cc3c2C(COCC3)C1 (stereo not shown) [Compound 78] |
| ≤ 10 nM | CN1Cc2cc(Nc3ncc(C#N)c(Nc4cccc(N=S(C)(C)=O)n4)n3)cc3c2C(CSCC3)C1 (stereo not shown) [Compound 79] |
| ≤ 10 nM | CN1Cc2cc(Nc3ncc(C#N)c(Nc4cccc(N=S(C)(C)=O)n4)n3)cc3c2C(C1)OCCC3 (stereo not shown) [Compound 80] |
| ≤ 10 nM | CN1Cc2cc(Nc3ncc(C#N)c(Nc4cccc(N=S(C)(C)=O)n4)n3)cc3c2C(C1)SCCC3 (stereo not shown) [Compound 81] |
| ≤ 10 nM | CCS(=O)(CC)=Nc1cccc(Nc2nc(Nc3cc4c5c(c3)CN(C)CC5CCC4)ncc2C#N)n1 (stereo not shown) [Compound 91] |
| ≤ 10 nM | CN1Cc2cc(Nc3ncc(Br)c(Nc4cccc(N=S(C)(C)=O)n4)n3)cc3c2C(CCC3)C1 (stereo not shown) [Compound 100] |
| ≤ 10 nM | CN1Cc2cc(Nc3ncc(C#N)c(Nc4cccc(N=S(C)(C)=O)c4)n3)cc3c2C(CCC3)C1 (stereo not shown) [Compound 101] |
| ≤ 10 nM | CN1Cc2cc(Nc3ncc(C#N)c(Nc4ccnc(N=S(C)(C)=O)c4)n3)cc3c2C(CCC3)C1 (stereo not shown) [Compound 102] |
| ≤ 10 nM | CN1Cc2cc(Nc3ncc(C#N)c(Nc4cncc(N=S(C)(C)=O)c4)n3)cc3c2C(CCC3)C1 (stereo not shown) [Compound 103] |
| ≤ 10 nM | CN1Cc2cc(Nc3ncc(C#N)c(Nc4cc(N=S(C)(C)=O)ccn4)n3)cc3c2C(CCC3)C1 (stereo not shown) [Compound 104] |
| ≤ 10 nM | CN1Cc2cc(Nc3ncc(C#N)c(Nc4ccnc(N=S(C)(C)=O)n4)n3)cc3c2C(CCC3)C1 (stereo not shown) [Compound 106] |
| ≤ 10 nM | CN1Cc2cc(Nc3ncc(C#N)c(Nc4nccc(N=S(C)(C)=O)n4)n3)cc3c2C(CCC3)C1 (stereo not shown) [Compound 107] |
| ≤ 10 nM | CN1Cc2cc(Nc3ncc(C#N)c(Nc4cc(F)cc(N=S(C)(C)=O)n4)n3)cc3c2C(CCC3)C1 (stereo not shown) [Compound 111] |
| ≤ 10 nM | CN1Cc2cc(Nc3ncc(C#N)c(-n4cnc5c(N=S(C)(C)=O)cccc54)n3)cc3c2C(CCC3)C1 (stereo not shown) [Compound 117] |
| ≤ 10 nM | CN1Cc2cc(Nc3ncc(C#N)c(Nc4nc(N=S(C)(C)=O)cc5[nH]ccc45)n3)cc3c2C(CCC3)C1 (stereo not shown) [Compound 118] |
| ≤ 10 nM | CN1Cc2cc(Nc3ncc(C#N)c(Nc4nc(N=S(C)(C)=O)cc5c4CCN5)n3)cc3c2C(CCC3)C1 (stereo not shown) [Compound 119] |
| ≤ 10 nM | CN1Cc2cc(Nc3ncc(C#N)c(Nc4cc5c(c(N=S(C)(C)=O)n4)CCC5)n3)cc3c2C(CCC3)C1 (stereo not shown) [Compound 120] |
| ≤ 10 nM | C=Cc1cc(N=S(C)(C)=O)nc(Nc2nc(Nc3cc4c5c(c3)CN(C)CC5CCC4)ncc2C#N)c1 (stereo not shown) [Compound 122] |
| ≤ 10 nM | COc1ccc(Nc2nc(Nc3cc4c5c(c3)CN(C)CCC5CCC4)ncc2C#N)nc1N=S(C)(C)=O (stereo not shown) [Compound 123] |
| ≤ 10 nM | CN1Cc2cc(Nc3ncc(C#N)c(Nc4cccc(N=S(C)(C)=O)n4)n3)cc3c2C(CCN3)C1 (stereo not shown) [Compound 132] |
| ≤ 10 nM | [2H]C([2H])([2H])N1Cc2cc(Nc3ncc(C#N)c(Nc4cccc(N=S(C)(C)=O)n4)n3)cc3c2C(CCC3)C1 (stereo not shown) [Compound 134] |
| ≤ 10 nM | [2H]c1ccc(Nc2nc(Nc3cc4c5c(c3)CN(C)CC5CCC4)ncc2C#N)nc1N=S(C)(C)=O (stereo not shown) [Compound 135] |
| ≤ 10 nM | [2H]C([2H])([2H])S(=O)(=Nc1cccc(Nc2nc(Nc3cc4c5c(c3)CN(C)CC5CCC4)ncc2C#N)n1)C([2H])([2H])[2H] (stereo not shown) [Compound 136] |
| ≤ 10 nM | [2H]C1([2H])C2CCCc3cc(Nc4ncc(C#N)c(Nc5cccc(N=S(C)(C)=O)n5)n4)cc(c32)CN1C (stereo not shown) [Compound 279] |
| ≤ 10 nM | [2H]C1([2H])c2cc(Nc3ncc(C#N)c(Nc4cccc(N=S(C)(C)=O)n4)n3)cc3c2C(CCC3)CN1C (stereo not shown) [Compound 280] |
